Measurements taken from US8563516B2, “Foxp3 peptide vaccine” (OncoTherapy Science, Inc., priority 2007, dated 2013).
Entries after “also recorded” stand apart in the source; their conditions may differ.

Assays:
[1] = system: peptide-pulsed T2 cells; test: IFN-gamma ELISA on expanded CTL lines, HLA-A02 peptides; assay type: cell-based, human; details: expanded cells of positive wells, FIG. 3A-D, 3F
Experimental: CTLs were expanded in culture using a similar method as reported by Riddell, et al. (Walter et al., N Engl J Med 333(16): 1038-44, 1995; Riddell et al., Nat Med 2(2): 216-23, 1996 February). A total of 5×10^4 CTLs were resuspended in 25 ml of AIM-V/5% AS with 2 kinds of human B-lymphoblastoid cell lines, inactivated with MMC, in the presence of 40 ng/ml of anti-CD3 monoclonal antibody (Pharmingen). One day after initiating the cultures, 120 IU/ml of IL-2 were added to the cultures. The cultures were fed with fresh AIM-V/5% AS containing 30 IU/ml of IL-2 on days 5, 8 and 11.
To examine the specific CTL activity, IFN-gamma ELISPOT assay and IFN-gamma ELISA were performed. Briefly, peptide-pulsed A24-LCL, T2 cell (1×10^4/well) or the cells endogenously expressing Foxp3 and HLA molecule was prepared as a stimulator cells. Cultured CTL lines in 48 wells were used as a responder cells. IFN-gamma ELISPOT assay and IFN-gamma ELISA were performed under manufacture procedure.
These cells in the positive wells were expanded and performed IFN-gamma ELISA assay.

[2] = system: BALB/c mice; test: Immunogenicity of epitope peptides in BALB/c mice (IFN-gamma ELISPOT on splenocytes); assay type: in vivo
Experimental: IFA-conjugated peptide or IFA only were injected s.c. into BALB/c mice on day 0 and 7. On day 14, splenocytes of vaccinated mice were harvested and used as responder cells. 1×10^4 RLmale1 cells pulsed corresponding peptide (solid square), or no peptide (open square) were used as stimulator cells for IFN-gamma ELISPOT assay. Vaccination using Foxp3-252_h (A) and Foxp3-252_m (B) were performed into five mice (M1-M5) and IFA without any peptide injection were performed into three mice (N1-N3) as control in each assay.
For priming the peptide-specific CTLs, immunization was given using 100 mcl vaccine mixture, which contains 50 mcl HLA-A24 restricted peptide and 50 mcl IFA per mouse. The vaccine was injected s.c. into the right flank of mice for the first immunization on day 0 and in the left flank for the second on the day 7. On day 14, splenocytes from vaccinated mice were used as the responder cells, and RLmale1 cells pulsed with or without peptides were used as the stimulator cells for IFN-gamma ELISPOT assay.
To evaluate the immunogenicity of Foxp3-9-252 peptide for BALB/c mice, immunization with human Foxp3-9-252 peptide (Foxp3-252_h; KLSAMQAHL)(SEQ ID NO: 17) and mouse Foxp3-9-252 peptide (Foxp3-252_m; KLGAMQAHL) (SEQ ID NO: 89) were performed, respectively. After second injection of peptide, peptide specific CTL activity was determined by IFN-gamma ELISPOT assay (FIG. 5).

[3] = system: 4T1 breast cancer cells; test: In vivo antitumor effects of vaccination, 4T1 tumor; design: species or system BALB/c mice; details: 4T1 s.c. day 0, vaccination day 3 and 10, compared with control mice, FIG. 6
Experimental: 1×10^5 4T1 breast cancer cell lines were injected into BALB/c mice on day 0. IFA-conjugated with Foxp3-252_h (-open circle-), Foxp3-252_m (-solid square-), no peptide (-solid triangle-) was injected on day 3 and 10. As control of normal tumor growth, non-vaccinated mice (-x-) were also prepared in this assay.
4T1 cells (1×10^5 per mouse) were injected s.c. into the right flank of BALB/c mice on day 0. Vaccination was done on days 3 and 10 using hFoxp3-252 (KLSAMQAHL: SEQ ID NO: 17) or mFoxp3-252 (KLGAMQAHL: SEQ ID NO: […]) IFA-conjugated peptides.
To examine the antitumor effects with peptide vaccination targeted Foxp3, in vivo therapeutic setting was attempted by using 4T1 tumor cells and BALB/c mice. The 4T1 breast cancer cells were injected s.c. into BALB/c mice on day 0, and then vaccination was done on these mice 3 and 10 days after the tumor challenge.

For “KLSAMQAHL (peptide vaccine) [SEQ ID NO 17]”, the “IFN-gamma production of CTL lines stimulated with peptide, compared with the control” value [1] was “potent IFN-gamma production”, the “mice with peptide specific CTL response” value ([2]; IFA-conjugated peptide s.c. day 0 and 7, splenocytes day 14, RLmale1 stimulator cells, FIG. 5) was “three of five” and the “induction of epitope specific CTLs in vivo” value ([2]; vaccination of BALB/c mice, discussion, listed as hFoxp3-252) was “could induce epitope specific CTLs in vivo; also recorded: superior to mFoxp3-252 peptide”. The “tumor growth / antitumor effect” value ([3]; listed as Foxp3-252_h) was “tumor growth apparently reduced; also recorded: Significant difference of tumor growth suppression” and the “tumor growth / antitumor effect” value ([3]; listed as hFoxp3-252) was “obviously anti-tumor effects; also recorded: superior to mFoxp3-252 peptide”.
